Results as given in paper PMC12504763, “Antiproliferation, 3D-multicellular spheroid and VEGFR-2 inhibitory properties of spiroindolin-2-ones with phosphonate function” (Scientific Reports, 2025).
Where two headings read alike, the source gives them in different places.

Experiments:
[1] = tested on: HCT116 (colon) cancer cell line; assay: 2D-monolayer antiproliferation (MTT) against HCT116; format: cell-based, human; settings: for IC50: Homo sapiens, HCT-116; for SI (selectivity index) HCT116: IC50 of RPE1 normal cell/IC50 of HCT116
[2] = tested on: PaCa2 (pancreatic) cancer cell line; assay: 2D-monolayer antiproliferation (MTT) against PaCa2; format: cell-based, human; settings: for 1/(observed property): 1/observed IC50 (μM), PaCa2; for IC50: Homo sapiens, PaCa-2, MTT, 72 h incubation, PaCa2 pancreatic, read-out: IC50, μM ± SEM PaCa2; for SI (selectivity index) PaCa2: IC50 of RPE1 normal cell/IC50 of PaCa2
[3] = tested on: MCF7 (breast) cancer cell line; assay: 2D-monolayer antiproliferation (MTT) against MCF7; format: cell-based, human; settings: for IC50: Homo sapiens, MTT, 72 h incubation, MCF7 breast, read-out: IC50, μM ± SEM MCF7; for SI (selectivity index) MCF7: IC50 of RPE1 normal cell/IC50 of MCF7
[4] = tested on: A549 (lung) cancer cell line; assay: 2D-monolayer antiproliferation (MTT) against A549; format: cell-based, human; settings: for IC50: Homo sapiens, MTT, 72 h incubation, A549 lung, read-out: IC50, μM ± SEM A549; for SI (selectivity index) A549: IC50 of RPE1 normal cell/IC50 of A549
[5] = tested on: RPE1 (normal human immortalized retinal pigment epithelial cell line); assay: cells; format: cell-based; settings: for IC50: Homo sapiens, RPE-1, MTT, normal RPE1 cell, read-out: IC50, μM ± SEM RPE1; for selectivity index (SI): IC50 against RPE1 compared to the tested cancer cell line(s), in words
VEGFR-2 [6] = target: T1, VEGFR-2 (Homo sapiens, UniProt P35968); assay: cell-based; format: cell-based; settings: for inhibition at 10 µM: HCT-116, HCT116; for VEGFR-2 pg/mL ± SEM HCT116: at 10 μM, control 317.80 ± 3.5
T1 construct: endogenous in cells; host or cells: HCT116, PaCa2, MCF7 (human cancer cell lines, ATCC origin)
T1 sequence (P35968 20-1356): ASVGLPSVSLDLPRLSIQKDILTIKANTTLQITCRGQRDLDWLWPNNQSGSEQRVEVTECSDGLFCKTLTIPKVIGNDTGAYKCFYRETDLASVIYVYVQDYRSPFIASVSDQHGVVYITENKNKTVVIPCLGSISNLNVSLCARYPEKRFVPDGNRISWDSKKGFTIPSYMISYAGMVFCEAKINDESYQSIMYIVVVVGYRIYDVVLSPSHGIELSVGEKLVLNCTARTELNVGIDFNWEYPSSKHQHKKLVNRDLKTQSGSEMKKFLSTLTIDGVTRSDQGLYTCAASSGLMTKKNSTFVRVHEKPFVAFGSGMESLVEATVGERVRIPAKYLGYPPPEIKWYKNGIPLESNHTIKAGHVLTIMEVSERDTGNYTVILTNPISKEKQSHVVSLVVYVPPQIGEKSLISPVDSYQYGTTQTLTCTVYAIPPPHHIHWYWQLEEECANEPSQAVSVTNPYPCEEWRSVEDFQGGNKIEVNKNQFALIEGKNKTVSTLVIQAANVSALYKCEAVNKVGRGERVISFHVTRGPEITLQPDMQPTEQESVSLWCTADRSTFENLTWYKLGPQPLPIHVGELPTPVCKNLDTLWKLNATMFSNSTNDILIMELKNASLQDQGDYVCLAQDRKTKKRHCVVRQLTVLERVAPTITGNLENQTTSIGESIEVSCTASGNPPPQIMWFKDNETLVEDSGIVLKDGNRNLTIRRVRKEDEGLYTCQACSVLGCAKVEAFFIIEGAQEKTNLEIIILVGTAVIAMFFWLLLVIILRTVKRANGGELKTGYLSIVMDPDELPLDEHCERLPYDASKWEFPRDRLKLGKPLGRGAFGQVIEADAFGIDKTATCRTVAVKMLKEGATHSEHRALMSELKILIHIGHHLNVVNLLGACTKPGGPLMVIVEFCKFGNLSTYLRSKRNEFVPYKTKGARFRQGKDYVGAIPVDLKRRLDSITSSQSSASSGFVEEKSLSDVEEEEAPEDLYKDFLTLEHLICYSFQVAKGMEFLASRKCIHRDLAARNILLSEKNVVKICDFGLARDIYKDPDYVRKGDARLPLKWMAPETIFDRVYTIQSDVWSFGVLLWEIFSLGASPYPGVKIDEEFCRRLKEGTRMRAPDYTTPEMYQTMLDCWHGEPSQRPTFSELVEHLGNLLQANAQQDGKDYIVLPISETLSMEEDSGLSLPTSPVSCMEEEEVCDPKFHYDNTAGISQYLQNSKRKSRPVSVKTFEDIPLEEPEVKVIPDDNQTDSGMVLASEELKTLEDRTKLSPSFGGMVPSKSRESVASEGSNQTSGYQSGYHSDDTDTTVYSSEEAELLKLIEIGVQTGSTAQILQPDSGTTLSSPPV

VEGFR-2 [7] = target: T1, VEGFR-2; assay: cell-based; format: cell-based; settings: for inhibition at 10 µM: PaCa-2, PaCa2; for VEGFR-2 pg/mL ± SEM PaCa2: at 10 μM, control 326.80 ± 1.9
VEGFR-2 [8] = target: T1, VEGFR-2; assay: cell-based; format: cell-based; settings: for inhibition at 10 µM: MCF7; for VEGFR-2 pg/mL ± SEM MCF7: at 10 μM, control 258.70 ± 2.3
COX-1 = target: T2, COX-1 (Ovis aries, UniProt P05979); assay: biochemical; settings: 3 replicates, read-out: % Inhibition of COX-1 ± SEM
T2 construct: purchased BioVision incorporated USA K548–100
T2 sequence (P05979 25-600): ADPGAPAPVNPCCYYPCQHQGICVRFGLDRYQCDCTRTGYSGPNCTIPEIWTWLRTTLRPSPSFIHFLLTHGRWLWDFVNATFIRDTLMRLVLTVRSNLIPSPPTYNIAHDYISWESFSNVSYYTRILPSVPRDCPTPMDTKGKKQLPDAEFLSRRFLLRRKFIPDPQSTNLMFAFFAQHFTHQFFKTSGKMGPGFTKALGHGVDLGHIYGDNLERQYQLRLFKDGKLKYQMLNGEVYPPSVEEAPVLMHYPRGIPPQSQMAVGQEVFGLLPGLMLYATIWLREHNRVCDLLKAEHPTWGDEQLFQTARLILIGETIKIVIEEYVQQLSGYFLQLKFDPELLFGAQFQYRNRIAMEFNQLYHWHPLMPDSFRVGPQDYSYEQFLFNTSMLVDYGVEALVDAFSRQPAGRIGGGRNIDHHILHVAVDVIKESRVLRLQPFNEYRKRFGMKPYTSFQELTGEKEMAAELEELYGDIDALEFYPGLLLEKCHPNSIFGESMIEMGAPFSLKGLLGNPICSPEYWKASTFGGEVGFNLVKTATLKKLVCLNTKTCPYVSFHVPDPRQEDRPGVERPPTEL

COX-2 = target: T3, COX-2 (Homo sapiens, UniProt P35354); assay: biochemical; settings: for inhibition at 10 µM: 3 replicates, read-out: % Inhibition of COX-2 ± SEM; for SI (selectivity index, COX-2/COX-1): at 10 μM
T3 construct: purchased BioVision incorporated USA K548–100
T3 sequence (P35354 18-604): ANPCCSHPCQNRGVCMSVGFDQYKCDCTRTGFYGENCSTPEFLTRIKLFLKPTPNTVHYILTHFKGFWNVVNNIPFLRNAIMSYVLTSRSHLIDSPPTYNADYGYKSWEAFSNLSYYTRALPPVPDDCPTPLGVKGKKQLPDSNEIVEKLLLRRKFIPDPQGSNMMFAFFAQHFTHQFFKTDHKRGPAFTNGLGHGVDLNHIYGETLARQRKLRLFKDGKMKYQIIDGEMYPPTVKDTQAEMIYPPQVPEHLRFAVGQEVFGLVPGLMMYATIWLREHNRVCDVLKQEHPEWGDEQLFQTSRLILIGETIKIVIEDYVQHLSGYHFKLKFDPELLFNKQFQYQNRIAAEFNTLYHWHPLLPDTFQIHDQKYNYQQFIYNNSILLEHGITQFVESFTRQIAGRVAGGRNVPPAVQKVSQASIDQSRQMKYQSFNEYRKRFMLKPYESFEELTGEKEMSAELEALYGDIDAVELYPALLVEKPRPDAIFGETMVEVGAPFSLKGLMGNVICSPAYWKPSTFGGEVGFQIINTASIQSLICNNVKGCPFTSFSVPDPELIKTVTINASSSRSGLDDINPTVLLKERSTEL

TNF-α [9] = assay: TNF-α inhibitory properties (ELISA), HCT116 cell lysate; format: cell-based, human; settings: at 10 μM; for TNF-α pg/mL (± SEM) HCT116: control 95.74 ± 0.5
TNF-α [10] = assay: TNF-α inhibitory properties (ELISA), PaCa2 cell lysate; format: cell-based, human; settings: at 10 μM; for TNF-α pg/mL (± SEM) PaCa2: control 111.8 ± 2.0
TNF-α [11] = assay: TNF-α inhibitory properties (ELISA), MCF7 cell lysate; format: cell-based, human; settings: at 10 μM; for TNF-α pg/mL (± SEM) MCF7: control 83.26 ± 1.1
[12] = MTT, 72 h incubation, HCT116 colon, read-out: IC50, μM ± SEM HCT116
[13] = log of observed IC50 (μM), HCT116, read-out: Log(observed property) (converted)

Row | Structure (SMILES) | IC50 [1, 12] [µM] | IC50 [1, 13] [µM] | SI (selectivity index) HCT116 [1] | 1/(observed property) [2] | IC50 [2] [µM] | SI (selectivity index) PaCa2 [2] | IC50 [3] [µM] | SI (selectivity index) MCF7 [3] | IC50 [4] [µM] | IC50 [5] [µM] | inhibition at 10 µM (VEGFR-2 [6]) [%] | VEGFR-2 pg/mL ± SEM HCT116 (VEGFR-2 [6]) [pg/mL] | inhibition at 10 µM (VEGFR-2 [7]) [%] | VEGFR-2 pg/mL ± SEM PaCa2 (VEGFR-2 [7]) [pg/mL] | inhibition at 10 µM (VEGFR-2 [8]) [%] | VEGFR-2 pg/mL ± SEM MCF7 (VEGFR-2 [8]) [pg/mL] | inhibition at 10 µM (COX-1) [%] | inhibition at 10 µM (COX-2) [%] | SI (selectivity index, COX-2/COX-1) (COX-2) | TNF-α pg/mL (± SEM) HCT116 (TNF-α [9]) [pg/mL] | other results
1 | CCOP(=O)(OCC)N1C/C(=C\c2ccc(Cl)cc2)C(=O)C2(C1)C(c1ccc(Cl)cc1)CN(C)C21C(=O)Nc2ccc(Cl)cc21 (stereo not drawn) [Compound 17j, Diethyl (E)-[5-chloro-5′′-(4-chlorobenzylidene)-4′-(4-chlorophenyl)-1′-methyl-2,4′′-dioxodispiro[indoline-3,2′-pyrrolidine-3′,3′′-piperidin]-1′′-yl]phosphonate] | 3.487 ± 0.033 | 3.49 | > 14.3 | 0.1443 | 6.93 ± 0.337 | > 7.2 | 3.87 ± 0.102 | > 12.9 | 6.06 ± 0.157 | > 50 | 80.3 | 62.50 ± 0.7 | 92.4 | 24.78 ± 0.3 | 82.7 | 44.80 ± 0.6 | 48.9 ± 1.5 | 53.5 ± 2.3 | 1.05 | 81.78 ± 1.4 | SI (selectivity index) A549 [4]: > 8.3; selectivity index (SI) [5]: high selectivity index; TNF-α % inhibition HCT116 (TNF-α [9]): 14.6%; TNF-α % inhibition PaCa2 (TNF-α [10]): 11.9%; TNF-α pg/mL (± SEM) PaCa2 (TNF-α [10]): 98.5 ± 3.1 pg/mL; TNF-α % inhibition MCF7 (TNF-α [11]): 0.5%; TNF-α pg/mL (± SEM) MCF7 (TNF-α [11]): 82.87 ± 4.5 pg/mL
2 | CCOP(=O)(OCC)N1C/C(=C\c2ccc(Br)cc2)C(=O)C2(C1)C(c1ccc(Br)cc1)CN(C)C21C(=O)Nc2ccccc21 (stereo not drawn) [Compound 17l, Diethyl (E)-[5′′-(4-bromobenzylidene)-4′-(4-bromophenyl)-1′-methyl-2,4′′-dioxodispiro[indoline-3,2′-pyrrolidine-3′,3′′-piperidin]-1′′-yl]phosphonate] | 4.16 ± 0.129 | 4.16 | 1.9 | 0.1626 | 6.15 ± 0.413 | 1.3 | 4.85 ± 0.082 | 1.6 | 7.28 ± 0.316 | 7.85 ± 0.284 | 73.5 | 84.20 ± 1.5 | 73.5 | 86.45 ± 1.2 | 71.6 | 73.50 ± 0.8 | 61.6 ± 1.2 | 50.3 ± 2.3 | 0.92 | 27.34 ± 1.1 | SI (selectivity index) A549 [4]: 1.1; TNF-α % inhibition PaCa2 (TNF-α [10]): 66.3%; TNF-α pg/mL (± SEM) PaCa2 (TNF-α [10]): 37.63 ± 0.8 pg/mL; TNF-α % inhibition MCF7 (TNF-α [11]): 59.6%; TNF-α pg/mL (± SEM) MCF7 (TNF-α [11]): 33.67 ± 1.7 pg/mL
3 | CCOP(=O)(OCC)N1C/C(=C\c2ccc(C)cc2)C(=O)C2(C1)C(c1ccc(C)cc1)CN(C)C21C(=O)Nc2ccc(F)cc21 (stereo not drawn) [Compound 17n, Diethyl (E)-(5-fluoro-1′-methyl-5′′-(4-methylbenzylidene)-2,4′′-dioxo-4′-(p-tolyl)dispiro[indoline-3,2′-pyrrolidine-3′,3′′-piperidin]-1′′-yl)phosphonate] | 5.09 ± 0.191 | 5.09 | > 9.8 | 0.06519 | 15.3 ± 0.911 | > 3.3 | 4.37 ± 0.156 | > 11.5 | > 50 | > 50 | 63.7 | 115.30 ± 2.2 | 87.5 | 40.70 ± 1.6 | 66.9 | 85.60 ± 0.7 | 50.6 ± 2.3 | 47.3 ± 1.4 | 1.08 | 86.47 ± 2.4 | selectivity index (SI) [5]: high selectivity index; TNF-α % inhibition HCT116 (TNF-α [9]): 9.7%; TNF-α % inhibition PaCa2 (TNF-α [10]): 13.9%; TNF-α pg/mL (± SEM) PaCa2 (TNF-α [10]): 96.3 ± 3.0 pg/mL; TNF-α % inhibition MCF7 (TNF-α [11]): 0.1%; TNF-α pg/mL (± SEM) MCF7 (TNF-α [11]): 83.17 ± 4.1 pg/mL
